Measurements published in patent publication US20100189772A1, “Compositions of TLR ligands and antivirals” (COLEY PHARMACEUTICAL GROUP, INC, priority 2006, published 2010).
Where two headings read alike, the source gives them in different places.

Columns and labels:
Human PBMC [1] = test: Cytokine induction by ORN in human PBMC (ELISA of supernatants); assay type: cell-based; conditions: human PBMC (n=3); for IFN-alpha cytokine induction, effect of the position of 8-Oxo-rG: FIG. 2, versus control SEQ ID NO:8; for IFN-alpha cytokine induction, 8-modified nucleotide at the ORN 5′ end: FIG. 3, compared to the unmodified ORN (SEQ ID NO:8 and 11)
Experimental: (§1) Cell purification Peripheral blood buffy coat preparations from healthy human donors were obtained from the Blood Bank of the University of Düsseldorf (Germany) and PBMC were purified by centrifugation over Ficoll-Hypaque (Sigma). Cells were cultured in a humidified incubator at 37° C. in RPMI 1640 medium supplemented with 5% (v/v) heat inactivated human AB serum (BioWhittaker) or 10% (v/v) heat inactivated FCS, 2 mM L-glutamine, 100 U/ml penicillin and 100 μg/ml streptomycin (all from Sigma).
(§2) Cytokine detection PBMC were resuspended at a concentration of 5×10^6 cells/ml and added to 96 well round-bottomed plates (250 μl/well). PBMC were incubated with various ODN, ORN or nucleoside concentrations and culture supernatants (SN) were collected after the indicated time points. If not used immediately, SN were stored at −20° C. until required. For inhibitory experiments, cells were stimulated with the indicated TLR ligand concentration and nucleoside or ORN added. In some experiments, the second modified ORN was added 1 h after the start of the cell culture.
(§3) Amounts of cytokines in the SN were assessed using a commercially available ELISA Kit for IL-12p40 (from BD Biosciences, Heidelberg, Germany), IFN-γ and TNF-α (from Diaclone, Besancon, France) or an in-house ELISA for IFN-α developed using commercially available antibodies (PBL, New Brunswick, N.J., USA). For analysis of a broad set of cytokines and chemokines, multiplex analysis with a luminex system from Bio-Rad (Munich, Germany) and Multiplex kits from Biosource (Solingen, Germany) was performed.
Human PBMC (n=3) were stimulated with 8-Oxo-rG (a C-8 substituted guanosine) modified ORN (SEQ ID NO:1-4) and an unmodified ORN (SEQ ID NO:8). Supernatants were collected and cytokines IFN-alpha (FIG. 1a), IL-12p40 (FIG. 1b) and TNF-alpha (FIG. 1c) were measured.
Human PBMC (n=3) were stimulated with the indicated ORN with a single 8-Oxo-rG at different positions of the ORN (SEQ ID NO:1-4) and the […] negative control (SEQ ID NO:8). Supernatants were collected and IFN-alpha measured.
Human PBMC (n=3) were stimulated with the indicated ORN with a single 8-Oxo-rG/Dg (SEQ ID NO:1, 5), 8-Bromo-dG (SEQ ID NO:7) or Immunosine (Isatoribine) (SEQ ID NO:6) (with a 5′-5′ linkage) at the 5′ end of the ORN and IFN-alpha measured. […] Similar data were obtained for 8-Bromo-rG (data not shown). In addition, even the linkage of a 8-modified dA or rA (data not shown) results in an, although only slight increase of the cytokine induction.

T cell IFN-γ production = test: In vivo treatment of mice with CpG ODN and/or RBV, ex vivo anti-CD3 induced IFN-gamma production of inguinal lymph node cells (ELISA); conditions: for T cell IFN-γ production ex-vivo after in vivo treatment with a single agent: SEQ ID NO. 14 100 micrograms SC or RBV 0.5 mg/kg IP alone, lymph node Day 6, ELISA Day 8, FIG. 4
Experimental: (§4) We repeated the experiment with a lower dose of RBV in vivo (0.5 mg/kg IP).
(§5) Mice were injected with SEQ ID NO. 14 (100 micrograms SC), RBV (0.5 mg/kg IP) or SEQ ID NO. 14 and RBV. RBV was administered in vivo either at day 0 or day 5 and CpG was administered at day O, Samples were isolated at Day 6 from the inguinal lymph node and maintained in medium on anti-CD3 coated plated in the presence of 1-16 μM RBV. On Day 8 an ELISA assay was performed to detect IFN-gamma.

[2] = tested on: bone marrow (BM) derived dendritic cells (DCs); test: Cytokine production of bone marrow derived dendritic cells treated with SEQ ID NO. 14 and/or RBV; assay type: cell-based
Experimental: Similar experiments were performed using bone marrow (BM) derived dendritic cells (DCs). BM-derived DC maintained in GM-CSF were treated with SEQ ID NO. 14, RBV (1 μM, 5 μM, 10 μM, 100 μM, or 120 μM) or with SEQ ID NO. 14 and RBV. At 4, 24 and 72 hours samples were tested for cytokine, IL-10 (FIG. 6), IL-12p40 (FIG. 7A), IL-12p70 (FIG. 7B) and TNF (data not shown). No effects of RBV alone at 120 μM were observed. SEQ ID NO. 14 induced IL-12, IL-10 and TNF. RBV decreased IL-10 and TNF but increased IL-12 (at 72 h only). RBV decreased SEQ ID NO. […].

C26 SC mouse model = test: C26 SC mouse cancer model, survival; assay type: in vivo; conditions: 100 micrograms ODN intra/peri tumor at days 7, 14, 21; 0.5 mg/kg RBV IP on same days; as of days 30-40; FIG. 8
Experimental: C26 SC mouse model was treated with SEQ ID NO. 14 and RBV (100 micrograms ODN intra/peri tumor at days 7, 14, 21 and 0.5 mg/kg RBV IP on same days).

[3] = tested on: CD3-mediated IFN-γ production; test: Ex vivo anti-CD3 stimulation of lymph node cells in the presence of RBV, IFN-gamma ELISA; assay type: cell-based, Mice
Experimental: as §4, §5
The ex vivo effect of RBV on CD3-mediated IFN-γ production independently of prior ODN/RBV treatment was examined. Similar to the data described above, low concentrations of RBV in vitro increased IFN-γ levels independently of previous in vivo treatments (FIG. 5A).

Human PBMC [4] = test: Effect of Ribavirin on CpG ODN-induced cytokines in human PBMC co-culture; assay type: cell-based; conditions: for IC50: Homo sapiens, PBMC, calculated IC50 upon addition of Ribavirin to cultures containing 1 μM SEQ ID NO: 13
Experimental: as §1, §2, §3
The observations were particularly noted at lose doses of Ribavirin.

[5] = SEQ ID NO. 14 alone, BM-derived DC in GM-CSF
[6] = human PBMC stimulated with CpG ODN (SEQ ID NO:15 as printed), increasing doses of Ribavirin

rO*rU*rU*rO*rU*rO*rU [SEQ ID NO:1]
IFN-alpha cytokine induction, effect of the position of 8-Oxo-rG (Human PBMC [1]): increased cytokine induction | IFN-alpha cytokine induction, 8-modified nucleotide at the ORN 5′ end (Human PBMC [1]): increased cytokine induction

iIM*rU*rU*rG*rU*rG*rU (5' isatoribine via 5'-5' linkage, phosphorothioate, as printed in the source, key not given here) [SEQ ID NO:6, ORN with Immunosine (Isatoribine) (with a 5′-5′ linkage) at the 5′ end]
IFN-alpha cytokine induction, 8-modified nucleotide at the ORN 5′ end (Human PBMC [1]): increased cytokine induction

TCCATGACGTTCCTGATGC (chemistry not given here) [SEQ ID NO. 14, CpG ODN]
T cell IFN-γ production ex-vivo after in vivo treatment with a single agent (T cell IFN-γ production): increased | IL-10 induction [2, 5]: induced | IL-12 induction [2, 5]: induced | TNF induction [2, 5]: induced | survival (C26 SC mouse model): prolonged survival

NC(=O)c1ncn([C@@H]2O[C@H](CO)[C@@H](O)[C@H]2O)n1 [Ribavirin]
IFN-γ production, ex vivo anti-CD3 stimulation in the presence of RBV ([3]; initial experiment, only at rather low concentrations of RBV (1-5 μM)): increase IFN-γ production | CD3-mediated IFN-γ levels, RBV in vitro ([3]; low concentrations of RBV in vitro, independently of previous in vivo treatments, FIG. 5A): increased | IC50 (Human PBMC [4]; read-out: IC50 IFN-alpha): 1000 µM | IC50 (Human PBMC [4]; read-out: IC50 IL-6): 320 µM | IC50 (Human PBMC [4]; read-out: IC50 IL-10): 58 µM | effect on the CpG-induced IL10 induction (Human PBMC [4]; [6]): suppressive effect | suppressive effect with respect to IFN-alpha (Human PBMC [4]; [6]): not observed | effect of RBV on IFN-γ production when CpG ODN was also injected (T cell IFN-γ production; RBV 0.5 mg/kg IP with SEQ ID NO. 14 100 micrograms SC, FIG. 4B): greatly enhanced | T cell IFN-γ production ex-vivo after in vivo treatment with a single agent (T cell IFN-γ production): small effect | ex vivo IFN-γ CD3-induced production after in vivo RBV (T cell IFN-γ production; initial experiment, 10 mg/kg intraperitoneal (IP) RBV): no effect in vivo of RBV and possibly even a slight decrease | effect of RBV on SEQ ID NO. 14-induced IL-12p40 ([2]; BM-derived DC, FIG. 7A): decreased | effect of RBV on SEQ ID NO. 14-induced IL-12p70 ([2]; BM-derived DC, FIG. 7B): increased IL-12p70 (slightly) | effect of RBV on SEQ ID NO. 14-induced IL-10 ([2]; BM-derived DC, RBV 1-120 μM with SEQ ID NO. 14, FIG. 6): decreased | effect of RBV on IL-12 ([2]; BM-derived DC, RBV with SEQ ID NO. 14, at 72 h only): increased | effect of RBV on TNF ([2]; BM-derived DC, RBV with SEQ ID NO. 14, data not shown): decreased | cytokines (IL-10, IL-12p40, IL-12p70, TNF), RBV alone ([2]; RBV alone at 120 μM, 4, 24 and 72 hours): No effects

O*rU*rU*rG*rU*rG*rU (8-oxo-dG at 5' end, phosphorothioate linkages, as printed in the source, key not given here) [SEQ ID NO:5, ORN with a single 8-Oxo-rG/Dg at the 5′ end]
IFN-alpha cytokine induction, 8-modified nucleotide at the ORN 5′ end (Human PBMC [1]): increased cytokine induction

rO*rU*rU*rG*rU*rG*rU (8-oxo-rG, phosphorothioate linkages, as printed in the source, key not given here) [SEQ ID NO:3, ORN with a single 8-Oxo-rG at the 5′ position]
IFN-alpha cytokine induction, effect of the position of 8-Oxo-rG (Human PBMC [1]): increased cytokine induction
